Drawing on patent US20260116868A1 (Arcus Biosciences, Inc., priority 2023, published 2026), this text covers IC50 and EC50 for 16 compounds.

One test deals with T1, Cbl-b (Homo sapiens, UniProt Q13191).
T1 construct: biotin (biotinylated protein)
Briefly: Cbl-b probe displacement HTRF binding assay. The settings on record: 0.4 nM Cbl-b, 150 nM BODIPY probe. The method in brief: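 Compound competes with BODIPY probe (150 nM) for biotinylated Cbl-b (0.4 nM) in HEPES/NaCl/Triton/TCEP/BSA buffer; 60 min preincubation, 15 min with probe, room temperature. Tb-streptavidin HTRF read; % displacement vs DMSO and no-protein controls, IC50 from four-parameter fit.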
For orientation: In TR-FRET formats the signal depends on donor and acceptor labels being close together.

Another test has as its system Jurkat cells. Briefly: IL-2 secretion assay in Jurkat cells activated with CD3/CD28 T Cell Activator. The class given is cell-based. The settings on record: Homo sapiens; Jurkat cells, CD3/CD28 T Cell Activator, 24 h, IL-2 AlphaLISA; read-out: IL-2 Secretion (EC50). The method in brief:
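Jurkat cells in Opti-MEM were preincubated 1 h at 37° C with compound (final 10 μM to 300 pM, 16-point 1:2 dilution), then activated with human CD3/CD28 T Cell Activator for 24 h at 37° C. Supernatant IL-2 measured by AlphaLISA; EC50 from 4-parameter logistic fit.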
On the technique in general: In Alpha technology, singlet oxygen from a donor bead excites a nearby acceptor bead.

T1 sequence (Q13191 whole entry, species assumed): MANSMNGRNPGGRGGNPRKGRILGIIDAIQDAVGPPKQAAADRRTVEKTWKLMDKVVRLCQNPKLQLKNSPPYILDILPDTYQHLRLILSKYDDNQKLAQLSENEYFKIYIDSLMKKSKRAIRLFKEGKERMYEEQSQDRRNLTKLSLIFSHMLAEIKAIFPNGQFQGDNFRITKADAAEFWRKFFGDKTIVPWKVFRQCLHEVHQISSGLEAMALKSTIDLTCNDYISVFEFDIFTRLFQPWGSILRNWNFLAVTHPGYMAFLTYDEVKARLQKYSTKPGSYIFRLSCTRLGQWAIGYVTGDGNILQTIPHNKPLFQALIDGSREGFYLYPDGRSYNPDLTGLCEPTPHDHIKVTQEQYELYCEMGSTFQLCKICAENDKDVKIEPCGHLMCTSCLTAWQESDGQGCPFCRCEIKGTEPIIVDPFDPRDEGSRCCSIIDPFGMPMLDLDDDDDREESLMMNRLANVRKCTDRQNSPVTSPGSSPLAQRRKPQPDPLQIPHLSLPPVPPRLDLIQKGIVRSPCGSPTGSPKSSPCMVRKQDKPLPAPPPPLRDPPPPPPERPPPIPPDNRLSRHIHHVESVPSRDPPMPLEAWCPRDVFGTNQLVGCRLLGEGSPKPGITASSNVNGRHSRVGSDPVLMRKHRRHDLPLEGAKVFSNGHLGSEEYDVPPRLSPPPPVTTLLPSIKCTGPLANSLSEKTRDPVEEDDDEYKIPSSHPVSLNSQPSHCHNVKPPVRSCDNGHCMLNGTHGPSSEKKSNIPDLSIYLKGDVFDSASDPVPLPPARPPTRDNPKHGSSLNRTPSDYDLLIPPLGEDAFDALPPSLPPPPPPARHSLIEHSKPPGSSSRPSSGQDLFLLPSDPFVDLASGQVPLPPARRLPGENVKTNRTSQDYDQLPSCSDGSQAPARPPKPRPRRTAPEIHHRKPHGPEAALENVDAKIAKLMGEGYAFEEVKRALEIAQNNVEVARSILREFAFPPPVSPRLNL

The IC50 is the concentration that inhibits the measured activity by half. High values mean weaker potency, low ones greater potency. By EC50 is commonly meant the midpoint of the concentration-response curve. As for `C[C@H]1CCCN(Cc2cc(C(=O)Nc3cc(-c4ccc(C#N)cc4-c4nncn4C(F)F)cc(C4CC4)n3)c(=O)n(C3CC3)c2)C1` [Example 7, N-(4-{4-cyano-2-[4-(difluoromethyl)-4H-1,2,4-triazol-3-yl]phenyl}-6-cyclopropyl-2-pyridyl)-5-{[(S)-3-methyl-1-piperidyl]methyl}-1-cyclopropyl-2-oxo-1,2-dihydronicotinamide], at Cbl-b, the IC50 is < 100 nM. Also, in the test with Jurkat cells, the EC50 is < 100 nM.

`CO[C@H]1CCN(Cc2cc(C(=O)Nc3cc(-c4ccc(F)cc4-c4nncn4C)cc(C4CC4)n3)c(=O)n(C3CC3)c2)C1` [Example 16, N-{6-cyclopropyl-4-[4-fluoro-2-(4-methyl-4H-1,2,4-triazol-3-yl)phenyl]-2-pyridyl}-5-{[(S)-3-methoxy-1-pyrrolidinyl]methyl}-1-cyclopropyl-2-oxo-1,2-dihydronicotinamide]: the IC50 at Cbl-b was < 100 nM. In addition, in the test with Jurkat cells, the EC50 lay in the range of 100 to 1000 nM.

As to `COCCNCc1cc(C(=O)Nc2cc(-c3ccc(C#N)cc3-c3nncn3C)cc(C3CC3)n2)c(=O)n(C2CC2)c1` [Example 3, N-[4-[4-cyano-2-(4-methyl-1,2,4-triazol-3-yl)phenyl]-6-cyclopropylpyridin-2-yl]-1-cyclopropyl-5-[(2-methoxyethylamino)methyl]-2-oxopyridine-3-carboxamide], at Cbl-b, the IC50 is < 100 nM. In addition, in the test on Jurkat cells, the EC50 was < 100 nM.

`COCCNCc1cc(C(=O)Nc2cc(-c3ccc(F)cc3-n3nncc3C)cc(C3CC3)n2)c(=O)n(C2CC2)c1` [Example 71, N-{6-cyclopropyl-4-[4-fluoro-2-(5-methyl-1H-1,2,3-triazol-1-yl)phenyl]-2-pyridyl}-1-cyclopropyl-5-[(2-methoxyethylamino)methyl]-2-oxo-1,2-dihydronicotinamide]: the IC50 on Cbl-b was < 100 nM. Further, in the test with Jurkat cells, the EC50 was < 100 nM.

On to `COC[C@H](C)NCc1cc(C(=O)Nc2cc(-c3ccc(F)cc3-c3nncn3C)cc(C3CC3)n2)c(=O)n(C2CC2)c1` [Example 18, N-{6-cyclopropyl-4-[4-fluoro-2-(4-methyl-4H-1,2,4-triazol-3-yl)phenyl]-2-pyridyl}-5-{[(S)-2-methoxy-1-methylethylamino]methyl}-1-cyclopropyl-2-oxo-1,2-dihydronicotinamide], for which the IC50 at Cbl-b is < 100 nM. Moreover, the EC50 in the test on Jurkat cells was < 100 nM.

For the compound `Cn1cc(CNC[C@@H]2CCCO2)cc(C(=O)Nc2cc(-c3ccc(Cl)cc3C(=O)N3CC(F)(F)C3)cc(C3CC3)n2)c1=O` [Example 107, N-[4-[4-chloro-2-(3,3-difluoroazetidine-1-carbonyl)phenyl]-6-cyclopropylpyridin-2-yl]-1-methyl-2-oxo-5-[[[(2S)-oxolan-2-yl]methylamino]methyl]pyridine-3-carboxamide], the IC50 at Cbl-b was < 100 nM. In the test on Jurkat cells, the EC50 was < 100 nM.

Regarding `Cn1cnnc1-c1cc(F)ccc1-c1cc(NC(=O)c2cc(CNCCC(F)(F)F)cn(C3CC3)c2=O)nc(C2CC2)c1` [Example 15, N-{6-cyclopropyl-4-[4-fluoro-2-(4-methyl-4H-1,2,4-triazol-3-yl)phenyl]-2-pyridyl}-1-cyclopropyl-2-oxo-5-[(3,3,3-trifluoropropylamino)methyl]-1,2-dihydronicotinamide], the 50% inhibitory concentration (IC50) on Cbl-b is < 100 nM. For the same compound, the EC50 in the test on Jurkat cells was < 100 nM.

On to `C[C@H]1CCCN(Cc2cc(C(=O)Nc3cc(-c4ccc(C(N)=O)cc4-c4nccn4C)cc(C4CC4)n3)c(=O)n(C3CC3)c2)C1` [Example 44, N-{4-[4-carbamoyl-2-(1-methyl-2-imidazolyl)phenyl]-6-cyclopropyl-2-pyridyl}-5-{[(S)-3-methyl-1-piperidyl]methyl}-1-cyclopropyl-2-oxo-1,2-dihydronicotinamide], for which, at Cbl-b, the half-maximal inhibitory concentration (IC50) fell in the range of 100 to 1000 nM. For the same compound, in the test with Jurkat cells, the EC50 is 1000 to 5000 nM.

`Cn1cnnc1-c1cc(F)ccc1-c1cc(NC(=O)c2cc(-c3cccc(N)c3)cn(C3CC3)c2=O)nc(C2CC2)c1` [Example 28, N-{6-Cyclopropyl-4-[4-fluoro-2-(4-methyl-4H-1,2,4-triazol-3-yl)phenyl]-2-pyridyl}-5-(m-aminophenyl)-1-cyclopropyl-2-oxo-1,2-dihydronicotinamide] showed an IC50 at Cbl-b of 100 to 1000 nM. In the test on Jurkat cells, the EC50 was > 5000 nM.

Turning to `CO[C@@H](C)CNCc1cc(C(=O)Nc2cc(-c3ccc(F)cc3-c3nncn3C)cc(C3CC3)n2)c(=O)n(C2CC2)c1` [Example 17, N-{6-cyclopropyl-4-[4-fluoro-2-(4-methyl-4H-1,2,4-triazol-3-yl)phenyl]-2-pyridyl}-5-{[(S)-2-methoxypropylamino]methyl}-1-cyclopropyl-2-oxo-1,2-dihydronicotinamide], the IC50 on Cbl-b is < 100 nM. Besides, the 50% effective concentration (EC50) in the test on Jurkat cells was < 100 nM.

With `C[C@H]1CCCN(Cc2cc(C(=O)Nc3cc(-c4ccc(F)cc4-c4nncn4C)cc(C4CC4)n3)c(=O)n(CC(F)(F)F)c2)C1` [Example 58, N-[6-cyclopropyl-4-[4-fluoro-2-(4-methyl-1,2,4-triazol-3-yl)phenyl]pyridin-2-yl]-5-[[(3S)-3-methylpiperidin-1-yl]methyl]-2-oxo-1-(2,2,2-trifluoroethyl)pyridine-3-carboxamide], the half-maximal inhibitory concentration (IC50) on Cbl-b was < 100 nM. The concentration giving a half-maximal response (EC50) with Jurkat cells is < 100 nM.

Regarding `C[C@H]1CCCN(Cc2cc(C(=O)Nc3cc(-c4ccc(F)cc4-c4nncn4C)cc(C4CC4)n3)c(=O)n(CCO)c2)C1` [Example 59, N-[6-cyclopropyl-4-[4-fluoro-2-(4-methyl-1,2,4-triazol-3-yl)phenyl]pyridin-2-yl]-1-(2-hydroxyethyl)-5-[[(3S)-3-methylpiperidin-1-yl]methyl]-2-oxopyridine-3-carboxamide], at Cbl-b, the half-inhibitory concentration (IC50) was < 100 nM. Besides, the EC50 in the test on Jurkat cells is < 100 nM.

Take `C[C@H]1CCCN(Cc2cc(C(=O)Nc3cc(-c4ccc(F)cc4-c4nncn4C)cc(C4CC4)n3)c(=O)n(C3CC3)c2)C1` [Example 2, 1-Cyclopropyl-N-[6-cyclopropyl-4-[4-fluoro-2-(4-methyl-1,2,4-triazol-3-yl)phenyl]pyridin-2-yl]-5-[[(3S)-3-methylpiperidin-1-yl]methyl]-2-oxopyridine-3-carboxamide]: the half-maximal inhibitory concentration (IC50) at Cbl-b is < 100 nM. Further, the 50% effective concentration (EC50) in the test on Jurkat cells is < 100 nM.

In the case of `Cn1cnnc1-c1cc(F)ccc1-c1cc(NC(=O)c2cc(C3CCNC3)cn(CC3CC3)c2=O)nc(C2CC2)c1` (centres unmarked) [Example 31, N-[6-cyclopropyl-4-[4-fluoro-2-(4-methyl-1,2,4-triazol-3-yl)phenyl]pyridin-2-yl]-1-(cyclopropylmethyl)-2-oxo-5-pyrrolidin-3-ylpyridine-3-carboxamide], the IC50 on Cbl-b was 100 to 1000 nM. For the same compound, the EC50 with Jurkat cells was > 5000 nM.

As to `COCC1(NCc2cc(C(=O)Nc3cc(-c4ccc(C#N)cc4-c4nncn4C(F)F)cc(C4CC4)n3)c(=O)n(C3CC3)c2)CCC1` [Example 12, N-(4-{4-cyano-2-[4-(difluoromethyl)-4H-1,2,4-triazol-3-yl]phenyl}-6-cyclopropyl-2-pyridyl)-1-cyclopropyl-5-{[1-(methoxymethyl)cyclobutylamino]methyl}-2-oxo-1,2-dihydronicotinamide], the half-maximal inhibitory concentration (IC50) at Cbl-b was < 100 nM. In addition, the concentration for a half-maximal effect (EC50) in the test on Jurkat cells was in the range of 100 to 1000 nM.

For `Cn1ccnc1-c1cc(C#N)ccc1-c1cc(NC(=O)c2cc(CNC3(C)CCC3)cn(C3CC3)c2=O)nc(C2CC2)c1` [Example 39, N-{4-[4-cyano-2-(1-methyl-2-imidazolyl)phenyl]-6-cyclopropyl-2-pyridyl}-1-cyclopropyl-5-[(1-methylcyclobutylamino)methyl]-2-oxo-1,2-dihydronicotinamide], at Cbl-b, the IC50 is < 100 nM. Also, in the test on Jurkat cells, the EC50 was < 100 nM.
